US20170305857A1, “N-ACYLPIPERIDINE ETHER TROPOMYOSIN-RELATED KINASE INHIBITORS” (Pfizer Limited, priority 2014, published 2017)

Each molecule was assayed against T1, recombinant His-tagged cytoplasmic domains of TRKA receptor (NTRK1, PV3144, aa 441-796) (Homo sapiens, UniProt P04629) (assay: Isolated TRK enzyme assay (HTRF KinEASE-TK, PV3144 TrkA enzyme assay)). Conditions: 4 nM enzyme, 40 uM ATP, 35 min, arithmetic mean where more than one reading.
T1 construct: aa 441-796; His; purchased Invitrogen PV3144
T1 sequence (P04629 441-796): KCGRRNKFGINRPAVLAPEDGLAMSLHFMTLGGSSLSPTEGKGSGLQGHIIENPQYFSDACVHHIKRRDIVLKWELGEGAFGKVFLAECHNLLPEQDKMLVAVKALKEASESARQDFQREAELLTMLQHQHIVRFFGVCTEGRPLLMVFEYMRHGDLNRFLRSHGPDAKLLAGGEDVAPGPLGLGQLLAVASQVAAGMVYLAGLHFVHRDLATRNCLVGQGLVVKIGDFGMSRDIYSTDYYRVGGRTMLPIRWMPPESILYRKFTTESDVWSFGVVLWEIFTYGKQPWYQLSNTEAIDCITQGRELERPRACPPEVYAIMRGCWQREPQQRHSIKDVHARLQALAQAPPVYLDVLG
Assay type: biochemical
Summary of the method: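 Enzyme and ATP were preincubated with compound for 20 min at room temperature in buffer with 10 mM MgCl and 2 mM DTT. TK-substrate-Biotin was then added (1 uM final) and the reaction run for an enzyme-specific optimized time. Phosphorylation was read by HTRF, and IC50 values came from sigmoid fits of percent inhibition normalized to plate controls, averaged over replicate readings.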
`NC(=O)c1cc(-c2cnn(C[C@H](O)CO)c2)ccc1OC1CCN(C(=O)Cc2ccc(OC(F)(F)F)cc2)CC1` [Example 119, 5-{1-[(2S)-2,3-dihydroxypropyl]-1H-pyrazol-4-yl}-2-[(1-{[4-(trifluoromethoxy)phenyl]acetyl}piperidin-4-yl)oxy]benzamide] showed an IC50 of 8 nM.
`Cc1nc(-c2cnc(O[C@@H]3CCN(C(=O)Cc4ccc(OC(F)(F)F)cc4)C[C@@H]3F)c(C(N)=O)c2)c[nH]1` [Example 120] was tested, and the IC50 was 1.3 nM.
`Cc1nc(-c2ccc(O[C@@H]3CCN(C(=O)Cc4ccc(OC(F)(F)F)cc4)C[C@@H]3F)c(C(N)=O)c2)c[nH]1` [Example 121] gave an IC50 of 1.5 nM.
For `NC(=O)c1cc(-c2cnn(C[C@@H](O)CO)c2)ccc1OC1CCN(C(=O)Cc2ccc(OC(F)(F)F)cc2)CC1` [Example 122], the IC50 was 4.4 nM.
Molecule `Cc1nn(C[C@@H](O)CO)c(C)c1-c1ccc(OC2CCN(C(=O)Cc3ccc(OC(F)(F)F)cc3)CC2)c(C(N)=O)c1` [Example 123] has an IC50 of 3.8 nM.
For `Cc1nn(C[C@H](O)CO)c(C)c1-c1ccc(OC2CCN(C(=O)Cc3ccc(OC(F)(F)F)cc3)CC2)c(C(N)=O)c1` [Example 124], the IC50 was 7.4 nM.
With `NC(=O)c1cc(-c2cn(C[C@H](O)CO)cn2)ccc1OC1CCN(C(=O)Cc2ccc(OC(F)(F)F)cc2)CC1` [Example 125] the IC50 was 6.6 nM.
Molecule `NC(=O)c1cc(-c2cn(C[C@@H](O)CO)cn2)ccc1OC1CCN(C(=O)Cc2ccc(OC(F)(F)F)cc2)CC1` [Example 126, 5-{1-[(2R)-2,3-dihydroxypropyl]-1H-imidazol-4-yl}-2-[(1-{[4-(trifluoromethoxy)phenyl]acetyl}piperidin-4-yl)oxy]benzamide] has an IC50 of 2.9 nM.
Molecule `NC(=O)c1cc(-c2c[nH]cn2)ccc1OC1CCN(C(=O)Cc2ccc(OC(F)(F)F)cc2)CC1` [Example 127, 5-(1H-imidazol-4-yl)-2-[(1-{[4-(trifluoromethoxy)phenyl]acetyl}piperidin-4-yl)oxy]benzamide] has an IC50 of 5.5 nM.
`CNC(=O)Cn1cnc(-c2ccc(OC3CCN(C(=O)Cc4ccc(OC(F)(F)F)cc4)CC3)c(C(N)=O)c2)c1` [Example 128, 5-{1-[2-(methylamino)-2-oxoethyl]-1H-imidazol-4-yl}-2-[(1-{[4-(trifluoromethoxy)phenyl]acetyl}piperidin-4-yl)oxy]benzamide] showed an IC50 of 6.1 nM.
For `NC(=O)c1cc(-c2cnn(CC3(O)COC3)c2)ccc1OC1CCN(C(=O)Cc2ccc(OC(F)(F)F)cc2)CC1` [Example 129, 5-{1-[(3-hydroxyoxetan-3-yl)methyl]-1H-pyrazol-4-yl}-2-[(1-{[4-(trifluoromethoxy)phenyl]acetyl}piperidin-4-yl)oxy]benzamide], the IC50 was 6.9 nM.
`NC(=O)c1cc(-c2cnn(CCO)c2)ccc1OC1CCN(C(=O)Cc2ccc(OC3CC3)cc2)CC1` [Example 130, 2-[(1-{[4-(cyclopropyloxy)phenyl]acetyl}piperidin-4-yl)oxy]-5-[1-(2-hydroxyethyl)-1H-pyrazol-4-yl]benzamide] was tested, and the IC50 was 5.5 nM.
Molecule `C[C@@H](CO)n1cc(-c2ccc(OC3CCN(C(=O)Cc4ccc(OC(F)(F)F)cc4)CC3)c(C(N)=O)c2)cn1` [Example 131, 5-{1-[(2S)-1-hydroxypropan-2-yl]-1H-pyrazol-4-yl}-2-[(1-{[4-(trifluoromethoxy)phenyl]acetyl}piperidin-4-yl)oxy]benzamide] has an IC50 of 4.4 nM.
`C[C@H](CO)n1cc(-c2ccc(OC3CCN(C(=O)Cc4ccc(OC(F)(F)F)cc4)CC3)c(C(N)=O)c2)cn1` [Example 132] showed an IC50 of 5.1 nM.
`C[C@@H](O)Cn1cc(-c2ccc(OC3CCN(C(=O)Cc4ccc(OC(F)(F)F)cc4)CC3)c(C(N)=O)c2)cn1` [Example 133] gave an IC50 of 2.6 nM.
Work on `C[C@H](O)Cn1cc(-c2ccc(OC3CCN(C(=O)Cc4ccc(OC(F)(F)F)cc4)CC3)c(C(N)=O)c2)cn1` [Example 134] yielded an IC50 of 2.5 nM.
`CC(C)(O)Cn1cc(-c2ccc(OC3CCN(C(=O)Cc4ccc(OC(F)(F)F)cc4)CC3)c(C(N)=O)c2)cn1` [Example 135] gave an IC50 of 3.9 nM.
In the case of `NC(=O)c1cc(-c2c[nH]nn2)ccc1OC1CCN(C(=O)Cc2ccc(OC(F)(F)F)cc2)CC1` [Example 136, 5-(1H-1,2,3-triazol-4-yl)-2-((1-(2-(4-(trifluoromethoxy)phenyl)acetyl)piperidin-4-yl)oxy)benzamide], the IC50 is reported as 5.3 nM.
In the case of `NCCn1cc(-c2ccc(OC3CCN(C(=O)Cc4ccc(OC(F)(F)F)cc4)CC3)c(C(N)=O)c2)cn1` [Example 138, 5-[1-(2-aminoethyl)-1H-pyrazol-4-yl]-2-[(1-{[4-(trifluoromethoxy)phenyl]acetyl}piperidin-4-yl)oxy]benzamide], the IC50 is reported as 7 nM.
In the case of `Cc1nc(-c2cnc(OC3CCN(C(=O)Cc4ccc(OC(F)(F)F)cc4)CC3)c(C(N)=O)c2)c[nH]1` [Example 139, 5-(2-methyl-1H-imidazol-4-yl)-2-[(1-{[4-(trifluoromethoxy)phenyl]acetyl}piperidin-4-yl)oxy]pyridine-3-carboxamide], the IC50 is reported as 10.7 nM.
With `Cn1cc(-c2ccc(OC3CCN(C(=O)Nc4ccc(OC(F)(F)F)cc4F)CC3)c(C(N)=O)c2)cn1` [Example 140, 4-(2-carbamoyl-4-(1-methyl-1H-pyrazol-4-yl)phenoxy)-N-(2-fluoro-4-(trifluoromethoxy)phenyl)piperidine-1-carboxamide] the IC50 was 10.3 nM.
With `NC(=O)c1cc(-c2c[nH]cn2)cnc1O[C@H]1CCN(C(=O)Cc2ccc(OC(F)(F)F)cc2)C[C@H]1F` [Example 141, 2-{[(3R,4S)-3-fluoro-1-{[4-(trifluoromethoxy)phenyl]acetyl}piperidin-4-yl]oxy}-5-(1H-imidazol-4-yl)pyridine-3-carboxamide] the IC50 was 1.4 nM.
`Cc1nc(C)c(-c2ccc(OC3CCN(C(=O)Cc4ccc(OC(F)(F)F)cc4)CC3)c(C(N)=O)c2)s1` [Example 143, 5-(2,4-dimethyl-1,3-thiazol-5-yl)-2-[(1-{[4-(trifluoromethoxy)phenyl]acetyl}piperidin-4-yl)oxy]benzamide] was tested, and the IC50 was 16.5 nM.
With `N#Cc1cc(-c2ccc(OC3CCN(C(=O)Cc4ccc(OC(F)(F)F)cc4)CC3)c(C(N)=O)c2)cs1` [Example 144, 5-(5-cyanothiophen-3-yl)-2-[(1-{[4-(trifluoromethoxy)phenyl]acetyl}piperidin-4-yl)oxy]benzamide] the IC50 was 16.7 nM.
`Cn1cncc1-c1ccc(OC2CCN(C(=O)Cc3ccc(OC(F)(F)F)cc3)CC2)c(C(N)=O)c1` [Example 145, 5-(1-methyl-1H-imidazol-5-yl)-2-[(1-{[4-(trifluoromethoxy)phenyl]acetyl}piperidin-4-yl)oxy]benzamide] showed an IC50 of 17.1 nM.
For `Cc1nc(-c2ccc(OC3CCN(C(=O)Cc4ccc(OC(F)(F)F)cc4)CC3)c(C(N)=O)c2)c[nH]1` [Example 146, 5-(2-methyl-1H-imidazol-4-yl)-2-[(1-{[4-(trifluoromethoxy)phenyl]acetyl}piperidin-4-yl)oxy]benzamide], the IC50 was 11.6 nM.
For `Cc1nnc(-c2ccc(OC3CCN(C(=O)Cc4ccc(OC(F)(F)F)cc4)CC3)c(C(N)=O)c2)s1` [Example 147, 5-(5-methyl-1,3,4-thiadiazol-2-yl)-2-[(1-{[4-(trifluoromethoxy)phenyl]acetyl}piperidin-4-yl)oxy]benzamide], the IC50 was 12.6 nM.
`Cn1ccc(-c2ccc(OC3CCN(C(=O)Cc4ccc(OC(F)(F)F)cc4)CC3)c(C(N)=O)c2)n1` [Example 148, 5-(1-methyl-1H-pyrazol-3-yl)-2-[(1-{[4-(trifluoromethoxy)phenyl]acetyl}piperidin-4-yl)oxy]benzamide] gave an IC50 of 12.6 nM.
